According to PubChem BioAssay (NCI):
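A five-concentration, 48-hour dose response in 96-well plates underlies each endpoint, interpolated linearly between surrounding concentrations. TGI: total growth inhibition.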

Key:
Test in all cases: NCI tumour cell line growth inhibition, 48 h
[1] = system: HT29 colon
[2] = system: SR leukemia
[3] = system: NCI/ADR-RES ovarian
[4] = system: PC-3 prostate
[5] = system: T-47D breast
[6] = system: SK-MEL-5 melanoma
[7] = system: NCI-H226 lung
[8] = system: KM12 colon
[9] = system: MALME-3M melanoma
[10] = system: A549 NSCLC
[11] = system: HL-60(TB) leukemia
[12] = system: EKVX NSCLC
[13] = system: A498 renal
[14] = system: SF-268 CNS
[15] = system: HOP-92 NSCLC
[16] = system: NCI-H460 lung
[17] = system: SK-MEL-28 melanoma
[18] = system: SK-MEL-2 melanoma
[19] = system: SNB-19 CNS

Row | Compound | TGI [1] [µM] | TGI [2] [µM] | TGI [3] [µM] | TGI [4] [µM] | TGI [5] [µM] | TGI [6] [µM] | TGI [7] [µM] | TGI [8] [µM] | TGI [9] [µM] | TGI [10] [µM] | TGI [11] [µM] | TGI [12] [µM] | TGI [13] [µM] | TGI [14] [µM] | TGI [15] [µM] | TGI [16] [µM] | TGI [17] [µM] | TGI [18] [µM] | TGI [19] [µM]
1 | COc1ccc(C2=Nn3c(nc4sc(C)c(C)c4c3=O)SC2)cc1 | > 100 | > 100 | > 100 | > 100 | > 100 | > 100 | > 100 | > 100 | > 100 | > 100 | > 100 | > 100 | > 100 | > 100 | > 100 | > 100 | > 100 | – | –
2 | Cc1cc(=O)oc2cc(SC(=O)N(C)C)ccc12 | > 100 | > 100 | > 100 | > 100 | > 100 | > 100 | > 100 | > 100 | > 100 | > 100 | > 100 | > 100 | > 100 | > 100 | > 100 | > 100 | > 100 | > 100 | > 100
3 | CC(C)/C(Cl)=N/OC(=O)Nc1cccc(C(F)(F)F)c1 | 10.6 | 3.12 | 16.7 | 29.8 | 14.1 | 21.3 | 30.7 | 29.8 | 3.66 | 39.1 | 2.22 | 7.1 | 37.1 | > 64.9 | 3.33 | 34.3 | 10.9 | 32.5 | 34
4 | O=C(/C=C/c1ccc(O)c(O)c1)OCc1ccccc1 | > 100 | 19.7 | 72.2 | 85.1 | 73.8 | 24.3 | > 100 | > 100 | 80.4 | 62.1 | 4.66 | > 100 | 50.5 | 45.8 | 58 | > 100 | 61.3 | 82 | 97.6
5 | NC(=O)NC(=O)CCC(NS(=O)(=O)c1ccccc1)C(=O)NC(N)=O (stereo unspecified) | > 100 | > 100 | > 100 | > 100 | > 100 | > 100 | > 100 | > 100 | > 100 | > 100 | > 100 | > 100 | > 100 | > 100 | > 100 | > 100 | > 100 | > 100 | > 100
6 | O=C1OC2C(O)COC2(O)C1(O)C(C[N+](=O)[O-])c1ccc(Cl)cc1 (stereo unspecified) | 6.11 | 19.6 | 72 | 34.3 | 43.2 | 21.6 | 26.6 | 18.3 | 30.3 | 37.1 | 10.5 | 51.4 | 12.3 | 31.3 | 54.2 | 34.7 | 10.8 | 35.8 | 28.9
7 | N=c1oc2c(Br)cc(Br)cc2cc1C(=O)Nc1ccccn1 | > 100 | > 100 | > 100 | > 100 | > 100 | > 100 | > 100 | > 100 | > 100 | > 100 | > 100 | > 100 | > 100 | > 100 | > 100 | > 100 | > 100 | 91.8 | > 100
8 | C1=Nc2ccc(cc2)N=Cc2ccccc2OCc2cccc(n2)COc2ccccc21 | > 100 | > 100 | > 100 | > 100 | > 100 | > 100 | > 100 | > 100 | > 100 | > 100 | > 100 | > 100 | > 100 | – | > 100 | > 100 | – | > 100 | 75.1
9 | CC(=O)OCC1OC(n2c(C#N)cc(=O)[nH]c2=O)CC1OC(C)=O (stereo unspecified) | > 100 | > 100 | > 100 | > 100 | > 100 | > 100 | > 100 | > 100 | > 100 | > 100 | > 100 | > 100 | > 100 | > 100 | > 100 | > 100 | > 100 | > 100 | > 100
10 | CC1=C(C)CC(C#N)(C#N)C(C#N)(C#N)C1 | > 10 | > 5.17 | > 10 | > 10 | 9.9 | > 10 | > 10 | > 10 | > 10 | > 10 | > 5 | > 10 | > 10 | > 10 | > 6.48 | > 10 | > 10 | > 10 | > 10
11 | CC(C)(C)N1C(=O)c2ccccc2C1(O)C(F)(F)F (stereo unspecified) | > 100 | > 100 | > 100 | > 100 | > 100 | > 100 | > 100 | > 100 | > 100 | > 100 | > 100 | > 100 | > 100 | > 100 | > 100 | > 100 | > 100 | > 100 | > 100
12 | C=C1[C@H](OC(=O)C(C)C)[C@@H](OC(C)=O)[C@@H](OC(C)=O)C(C)(C)[C@@H]2O[C@H]2[C@@H](C)C(=O)[C@@]2(OC(C)=O)C[C@@](C)(OC(C)=O)[C@H](OC(C)=O)[C@@H]2[C@H]1OC(C)=O | > 100 | > 100 | > 100 | > 100 | > 100 | > 100 | > 100 | > 100 | > 100 | > 100 | > 100 | > 100 | > 100 | > 100 | > 100 | > 100 | – | > 100 | > 100
13 | C=CCc1c(C)nc(C)nc1N/N=C/C=C/c1ccccc1 | > 100 | 57.3 | 64.8 | > 100 | 28 | 84.2 | > 100 | – | > 100 | > 100 | 81.2 | 69.2 | 65.2 | > 100 | 99.5 | 57.5 | > 100 | > 100 | > 100
14 | COc1ccc2c(c1)CCN=C2Cc1ccccc1CCCl | 55 | > 100 | 64.9 | > 100 | > 100 | 36.6 | 83.5 | 74.6 | – | > 100 | 48.6 | > 100 | > 100 | > 100 | > 100 | 38.8 | > 100 | 58.3 | > 100
15 | Cc1[nH]n(C2=NCCN2)c(=O)c1C | > 100 | > 100 | > 100 | > 100 | > 100 | > 100 | > 100 | > 100 | > 100 | > 100 | > 100 | > 100 | > 100 | > 100 | > 100 | > 100 | – | > 100 | > 100
16 | O=C(Nc1cccc(NC(=O)C(=O)C2CCC3=C(Sc4ccccc4N3)C2=O)n1)C(=O)C1CCC2=C(Sc3ccccc3N2)C1=O (stereo unspecified) | > 100 | > 100 | > 100 | > 100 | > 100 | > 100 | > 100 | > 100 | > 100 | > 100 | > 100 | > 100 | > 100 | > 100 | > 100 | > 100 | > 100 | > 100 | > 100
17 | Cn1c2c(c3ccccc31)CCN1OCC=C[C@@H](C(=O)O)[C@@H]21 | > 100 | > 100 | > 100 | > 100 | > 100 | > 100 | > 100 | > 100 | > 100 | > 100 | > 100 | > 100 | > 100 | > 100 | > 100 | > 100 | > 100 | > 100 | > 100
18 | CCN(CC)C(=S)SNc1ccc(S(N)(=O)=O)cc1 | > 54.6 | > 85.6 | > 100 | > 100 | > 100 | > 100 | > 100 | > 100 | 97.3 | > 100 | > 100 | > 100 | > 100 | > 100 | > 100 | > 100 | > 100 | > 100 | > 100
19 | CN(C)C(=S)N1C(=S)N(c2ccccc2)C(=Nc2ccccc2)C1=Nc1ccccc1 | > 100 | > 100 | > 100 | > 100 | > 100 | > 100 | > 100 | > 100 | > 100 | > 100 | > 100 | > 100 | > 100 | > 100 | > 100 | > 100 | > 100 | > 100 | > 100
20 | O=C(Nc1ccc(Cl)cc1)NS(=O)(=O)c1coc2ccccc2c1=O | > 10 | > 10 | > 10 | > 10 | > 10 | > 10 | > 10 | > 10 | > 10 | > 10 | > 10 | > 10 | > 10 | > 10 | > 10 | > 10 | > 10 | > 10 | > 10
21 | C=CCOc1ccc(/C(N=Nc2ccc(C)cc2)=N/NC(=O)c2ccccc2)cc1OC | > 100 | 25 | > 100 | > 100 | 45.3 | 31.9 | 58.4 | 48.7 | 76.9 | 64.9 | 29 | > 100 | 72 | > 100 | 41.8 | 48 | 51.3 | 73.3 | > 100
22 | Cc1ccccc1N=CN(C)C | > 100 | > 100 | > 100 | > 100 | > 100 | 43.6 | > 100 | – | > 100 | > 100 | 39 | > 100 | > 100 | > 100 | > 100 | – | > 100 | > 100 | > 100
23 | C/C(=C/c1ccccc1)CN(C(=O)/C=C\Sc1ccccc1)C(C)(C)C | > 100 | > 100 | > 100 | > 100 | > 100 | > 100 | > 100 | > 100 | > 100 | > 100 | > 100 | > 100 | > 100 | > 38.1 | > 71.6 | > 100 | > 100 | > 100 | > 100
24 | Cc1cc(N)ccc1N=Nc1ccc(S(=O)(=O)CCOS(=O)(=O)O)cc1 | 6.53 | > 100 | > 100 | 12.7 | > 59.1 | 2.23 | 15.6 | 13.2 | 20.5 | 21.5 | > 38.1 | > 53 | 31.1 | 21.7 | 19.5 | 12.2 | 19 | 3.89 | 19.3
